One data set deals with c-Src. Kind of data set: c-Src expression by Western immunoblot, T98G. It counts as cell-based, human. The conditions noted are these: 100 μM, 24 h. The protocol: The Src oncogene product was the first to be identified as tyrosine kinase. Today the “Src-family” of non-receptor tyrosine kinases is known to be represented in every cell type and signaling system. […] This observation is further corroborated with the data on the dose and time dependent inhibition of IGF1-R described herein.
The T98G cells are exponentially grown in MEM with 10 nM human recombinant IGF-1 (Bachem California, Torrance, Calif.) or MEM with 10% FBS. The cells were disrupted in cold lysis buffer (10 μM terra sodium pyrophosphate, 20 mM HEPES, 1% Triton X-100, 100 mM NaCl, 2 ug/ml aprotinin, 2 μg/ml leupeptin and 100 μg/ml of PMSF). The crude lysates were centrifuged and protein concentration was determined by using Pierce BCA Protein Assay kit. […] Rabbit anti-human polyclonal primary antibodies to c-Src (pp60^Src (aa403-421) (Upstate Biotechnology, Lake Placid, N.Y.) were incubated for one hour at room temperature in TBST and 1% nonfat milk. The blots were then washed and incubated with anti-rabbit horseradish peroxidase conjugated secondary antibody (Oncogene Science, Inc. Uniondale, N.Y.). Antigen bound to nitrocellulose membrane was detected with the ECL system (Amersham Corp., Arlington Heights, Ill.). FIG. 9A was a positive control for c-Src from A431 cell lysate, FIGS. 9B and C were untreated and 100 μM […] treated T98G cell lysates respectively.
On the technique in general: A western blot detects proteins with antibodies after separation by electrophoresis.

For a further data set, the system named is rat astrocyte cells. Kind of data set: Apoptosis by in situ TUNEL assay, rat astrocytes in primary culture. In kind it is cell-based. The conditions noted are these: 100 μM, 24 hours, vs untreated astrocytes. The protocol: (§1) Apoptosis by in situ TUNNEL assay: This experiment was designed to test the hypothesis that down regulation of IGF1-R facilitates apoptosis in T98G cells. […] In addition, to test whether Asc-S treatment induces apoptosis in normal cells, rat astrocyte cells in primary culture were treated with 100 μM Asc-S for 24 hours. […] The increased apoptosis in the Asc-S treated T98G cells is due to down regulation of IGF1-R.
(§2) In FIG. 10, apoptosis was evaluated by in situ immunohistochemical detection and quantification at a single cell level.

Another data set has as its system IGF1-R. Kind of data set: IGF1-R expression by Western immunoblotting, PANC-1. In kind it is cell-based, human. The following applies: 150 μM, 24 hours, vs untreated control. The protocol: PANC-1 cells were cultured for 24 hours in MEM+10% FBS and treated with 150 μM Asc-S for 24 hours, Asc-S treated and untreated (control). PANC-1 cells were analyzed by Western immunoblotting as follows: Cell lysates of treated and non-treated PANC-1 cells were obtained. The lysates were sonicated, centrifuged and protein concentration was determined with Pierce BCA protein kit (Pierce Laboratories). A 20 μg of protein was loaded and resolved at 4% to 15% polyacrylamide gradient gel by sodium dodecyl sulfate-polyacrylamide gel electrophoresis (SDS-PAGE) and electroblotted onto a nitrocellulose membrane […]. The membrane was immunoblotted with mouse anti-human IGF1-R antibodies to cross-react the 85 kDa β-subunit of the IGF1-R (Pharmingen, San Diego, Calif.) followed by anti-mouse horseradish peroxidase conjugated secondary antibody (ECL, Amersham Corporation, Arlington Heights, Ill.). Antigen bound to nitrocellulose membrane was detected with the ECL system (Amersham Corporation, Arlington Heights, Ill.). P6 cells (3T3 fibroblast cells, transfected with a CVN plasmid constituitively expressing human IGF1-R) were used as the positive control.
In additional experiments PANC-1 cells were cultured in MEM+10% FBS and treated with different concentrations of Asc-S (e.g. 50, 75, 100, 125, 150 and 200 μM) for 24 hours. […]

Data set [1] has as its system mouse glioma cells (G-26). Put plainly: Intracerebral G-26 glioma in C57BL/6 mice, survival. In kind it is in vivo. The following applies: C57BL/6 mice with intracerebral G-26 gliomas, oral 250 mg/Kg daily; controls 27±2 days. The protocol: In vivo administration of Asc-S (250 mg/Kg) on intracerebral gliomas in C57BL/6 mice: The C57BL/6 mice were implanted with mouse glioma cells (G-26) by stereotaxic intracerebral implantation. […] (FIGS. 11A and B).
The body weight profiles of those mice during the experiments are shown in (FIG. 11B). The median survival observed in this study is statistically significant (P<0.05).
In vivo administration of Asc-S (250 mg/Kg) on intracerebral gliomas in C57BL/6 mice. The C57BL/6 mice were implanted with mouse glioma cells (G-26) by stereotaxic intracerebral implantation.
The body weight profiles of those mice during the experiments are shown in (FIG. 17B). The median survival observed in this study is statistically significant (P<0.05).

The subject of another data set is T98G cells. Put plainly: Apoptosis by in situ TUNEL assay, T98G. It counts as cell-based, human. The conditions noted are these: 100 μM, 24 hours. The protocol: as §1, §2

For the molecule `CCCCCCCCCCCCCCCCCC(=O)OC[C@H](O)[C@H]1OC(=O)C(O)=C1O` [Asc-S, Ascorbyl stearate], in the data set with c-Src, the “c-Src expression, T98G cells” value is given as “did not affect”. Moreover, the “apoptotic rate (in situ TUNEL), rat astrocytes” value in the data set on rat astrocyte cells is listed as “did not increase the apoptotic rate”. For the same molecule, in the data set on IGF1-R, the “IGF1-R expression, PANC-1 cells (Western blotting)” value is given as “significantly lower number of receptors”. In data set [1], the median survival amounted to 43 ± 2 days. The “apoptosis (in situ TUNEL), T98G cells” value with T98G cells is recorded as “significant increase in apoptosis”.

The record behind these values is patent publication US6638974B1, “Ascorbyl esters for the treatment of cancer” (University of South Florida, priority 1999, dated 2003).
